Consider 15 compounds from patent publication US7601736B2, “Pyridine derivatives, a process for their preparation and a pharmaceutical composition containing the same” (SK Chemicals Co., Ltd., priority 2003, dated 2009).

Assay [1] has as its system TNF-α. The assay is described as follows: Cytokine inhibitory activity in cells: LPS-induced TNF-α in RAW 264.7. Format: cell-based, murine. The note with it: for inhibition at 1 µM / inhibition at 10 µM / inhibition at 100 µM / inhibition at 1000 µM: Mus musculus, RAW264.7, read-out: TNF-α Inhibition Rate (%); for inhibition at 1 µM / inhibition at 10 µM / inhibition at 100 µM / inhibition at 1000 µM / TNF-α Inhibition Rate (%): RAW 264.7, LPS 1 μg/mL; for inhibitory activity in RAW 264.7 cell line on the production of TNF-α, in words: compared to the control compounds. How it is done:
General reagents used were purchased from Sigma-Aldrich chem. Co. and cytokine inhibitory activities were tested as follows. Mediums and reagents used in cell culture were purchased from GIBCO BRL (USA), and mouse TNF-α ELISA kit was purchased from R&D system (USA). The apparatus used ELISA reader (Spectra max-Plus 384, Molecular Device, USA).
Murine macrophage cell line RAW 264.7 was kindly provided by Korean Tissue Culture Center (KTCC). The cell line was cultured in DMEM medium containing 10% FBS, in a cell culturing device at the condition of 37° C., 5% CO2. First, murine RAW 264.7 was cultured in DMEM medium containing 10% FBS for about 24 hours, and cells were planted 200 μL each in 96 well plates at the concentration of 5×10^5/mL and cultured for about 24 hours. Then, test compounds were treated at various concentrations and then reacted at 37° C. for about 1 hour, wherein 1 μg/mL of lipopolysaccharide (LPS) was added thereto and reacted at 37° C. for about 12 hours. The supernatant was recovered and the amount of murine TNF-α on the medium was quantitated using ELISA kit. Thalidomide was respectively used as a positive and a negative control to compare the activities and the results are shown in the following tables 4a -4c.

Assay [2] deals with TNF-α. The assay is described as follows: Cytokine inhibitory activity in animal model (LPS-treated SD rats), plasma TNF-α. Particulars: for inhibition in vivo at 40 mg/kg: Rattus norvegicus, 2 h, read-out: TNF-α Inhibition Rate (Conc.); for inhibition in vivo at 40 mg/kg / TNF-α Inhibition Rate (Conc.): SD rats, oral, LPS, 40 mg/kg; for inhibitory activity on production of TNF-α compared to Indomethacin: rat model, in words. It counts as in vivo, Sprague Dawley (SD) rats. How it is done: Sprague Dawley (SD) rats with body weights of about 180 to about 200 g were fasted (free drinking) and then tested. Test compounds were administered orally at 40 mg/kg and then abdominally administered with LPS 1 μg/mL after 1 hour. After 2 hours, the rats were sacrificed and bloods were collected from abdominal vein, stored at room temperature for about 2 hours, and then centrifuged at 12,000 rpm for about 2 minutes. Thus produced plasma was respectively collected and its TNF-α in each plasma was quantitated using mouse TNF-α ELISA kit based on the amount of recombinant TNF-α in rats. The plate used was coated with anti-rat TNF-α monoclone IgG antibodies. Likewise, for the test of IL-1α, IL-1α in each plasma was quantitated using the above plasma and mouse IL-1α ELISA kit based on the amount of recombinant IL-1α in rats. The plate used was coated with anti-rat IL-1α monoclone IgG antibodies. Further, for the test of IL-6, IL-6 in each plasma was quantitated using the above plasma and mouse IL-6 ELISA kit based on the amount of recombinant IL-6 in rats. Further, for the test of INF-γ, INF-γ in each plasma was quantitated using the above plasma and mouse INF-γ ELISA kit based on the amount of recombinant INF-γ in rats. The plate used was coated with anti-rat INF-γ monoclone IgG antibodies. From the above tests, inhibitory rates on the expression of each cytokine were obtained and they were compared to that of Indomethacin.

Assay [3] deals with ICR (Institute of Cancer Research) mouse. The assay is described as follows: Arachidonic acid-induced ear edema test. Format: in vivo. The note with it: oral, 100 mg/kg. How it is done:
Male ICR (Institute of Cancer Research) mouse with body weight of about 20 to 30 g were tested wherein each group had 6 mouses. After 1 hour of the oral administration of a test compound, Arachidonic acid (in acetone solution) was coated on one of the ears. After 1 hour, the thickness of the swollen ear in treated group was compared with the other unswollen ear and obtained the average increase rate in thickness of ear by the treatment.

For assay [4] the test system is unchanged. The assay can be described thus: Analgesic test (acetic acid-induced stretchings). Format: in vivo. Particulars: oral, 100 mg/kg. Here is the method: Male ICR (Institute of Cancer Research) mouse with body weight of about 20 to 30 g were tested wherein each group had 6 mouses. After 1 hour of the oral administration of a test compound, acetic acid (in distilled water) was abdominally administered. For the duration of 10 minutes, the animals were observed regarding the number of stretchings and the number was compared with that of placebo treated group and the result is shown in the following table 7.

For assay [5] the test system is unchanged. The assay is described as follows: Croton oil-induced ear edema test. It counts as in vivo. The note with it: oral, 100 mg/kg. Here is the method: Male ICR (Institute of Cancer Research) mouse with body weight of about 20 to 30 g were tested wherein each group had 6 mouses. After 1 hour of the oral administration of a test compound, Croton oil (in acetone solution) was coated on one of the ears. After 4 hours, the thickness of the swollen ear in treated group was compared with the other unswollen ear and obtained the average increase rate in thickness of ear by the treatment.

With `Cc1cc2c(c(N)n1)C(=O)OCC2` [Ex. 53, 8-amino-6-methyl-3,4-dihydro-pyrano[3,4-c]pyridine-1-on], the inhibition at 1 µM in the assay with TNF-α [1] (test conc. 1 μM) amounted to 85%. In addition, the inhibition at 10 µM with TNF-α [1] (test conc. 10 μM) is 100%. Also, the inhibition at 100 µM in the assay on TNF-α [1] (test conc. 100 μM) was 100%. For the same compound, the inhibition at 1000 µM in the assay with TNF-α [1] (test conc. 1 mM) stood at 100%. Moreover, the “inhibitory activity in RAW 264.7 cell line on the production of TNF-α, in words” value (“inhibitory activity … in words” for short) in the assay with TNF-α [1] was “superiorities over to the control compounds”. For the same compound, the inhibition in vivo at 40 mg/kg in the assay on TNF-α [2] was 53%.
Turning to `COc1nc(-c2ccccc2)cc2c1C(=O)OCC2` [Ex. 79, 8-methoxy-6-phenyl-3,4-dihydro-pyrano[3,4-c]pyridine-1-on], in the assay on TNF-α [1] (test conc. 1 μM), the inhibition at 1 µM is 76%. Also, the inhibition at 10 µM in the assay on TNF-α [1] (test conc. 10 μM) amounted to 8%. In addition, in the assay with TNF-α [1] (test conc. 100 μM), the inhibition at 100 µM stood at 94%. For the same compound, the inhibition at 1000 µM in the assay on TNF-α [1] (test conc. 1 mM) was found to be 100%. In addition, the “inhibitory activity … in words” value in the assay with TNF-α [1] was “superiorities over to the control compounds”. In the assay with TNF-α [2], the inhibition in vivo at 40 mg/kg was 78% and the “inhibitory activity on production of TNF-α compared to Indomethacin” value (“inhibitory activity … compared to Indomethacin” for short) was 1.5 or 2 times greater.
In the case of `Cc1nc(-c2ccccc2)cc2c1C(=O)OCC2` [Ex. 77, 8-methyl-6-phenyl-3,4-dihydro-pyrano[3,4-c]pyridine-1-on], the inhibition at 1 µM with TNF-α [1] (test conc. 1 μM) turned out to be 68%. Also, in the assay on TNF-α [1] (test conc. 10 μM), the inhibition at 10 µM was 76%. Also, in the assay with TNF-α [1] (test conc. 100 μM), the inhibition at 100 µM was determined as 89%. The inhibition at 1000 µM with TNF-α [1] (test conc. 1 mM) amounted to 100%. For the same compound, the “inhibitory activity … in words” value in the assay on TNF-α [1] is “superiorities over to the control compounds”. Moreover, the inhibition in vivo at 40 mg/kg in the assay with TNF-α [2] is 66%.
With `O=C1c2cnccc2CCN1Cc1ccccc1` [Ex. 117, 2-benzyl-3,4-dihydro-2H-[2,7]naphtyridine-1-on], the “TNF-α Inhibition Rate (%)” value with TNF-α [1] (test conc. 1 μM) came out at 10%; with TNF-α [1] (test conc. 10 μM), 18%; in the assay with TNF-α [1] (test conc. 100 μM) it was 29%; in the assay on TNF-α [1] (test conc. 1 mM), 35%. Further, the “TNF-α Inhibition Rate (Conc.)” value in the assay with TNF-α [2] was 69% (40 mg/kg).
Turning to `Cc1cc2c(c(-c3ccc(F)cc3)n1)C(=O)OCC2` [Ex. 30, 8-(4-fluorophenyl)-6-methyl-3,4-dihydro-pyrano[3,4-c]pyridine-1-on], in the assay on TNF-α [1] (test conc. 1 μM), the inhibition at 1 µM was found to be 100%. Besides, the inhibition at 10 µM in the assay with TNF-α [1] (test conc. 10 μM) amounted to 100%. In addition, the inhibition at 100 µM with TNF-α [1] (test conc. 100 μM) was 100%. In addition, the inhibition at 1000 µM in the assay with TNF-α [1] (test conc. 1 mM) was determined as 100%. In the assay on TNF-α [1], the “inhibitory activity … in words” value is listed as “superiorities over to the control compounds”. For the same compound, in the assay with TNF-α [2], the inhibition in vivo at 40 mg/kg was 79% and the “inhibitory activity … compared to Indomethacin” value is given as 1.5 or 2 times greater.
As for `Cc1cc2c(c(N3CCOCC3)n1)C(=O)OCC2` [Ex. 33, 6-methyl-8-morpholine-4-yl-3,4-dihydro-pyrano[3,4-c]pyridine-1-on], in the assay on TNF-α [1] (test conc. 10 μM), the inhibition at 10 µM was 9%. In the assay with TNF-α [1] (test conc. 100 μM), the inhibition at 100 µM was found to be 18%. Besides, the inhibition at 1000 µM with TNF-α [1] (test conc. 1 mM) stood at 29%. Besides, in the assay on TNF-α [2], the inhibition in vivo at 40 mg/kg came to 90% and the “inhibitory activity … compared to Indomethacin” value is 1.5 or 2 times greater.
Take `Cc1ccc(-c2cc(C(F)(F)F)nn2-c2ccc(S(N)(=O)=O)cc2)cc1` [Celecoxib, reference compound]: the “Inhibition Rate (%)” value in assay [3] stood at 33%; in assay [4], 81%; in assay [5], 35%.
As to `CC(=O)Oc1nc(-c2ccccc2)cc2c1C(=O)OCC2` [Ex. 78, 1-oxo-6phenyl-3,4-dihydro-1H-pyrano[3,4-c]pyridine-8-yl acetic ester], the “TNF-α Inhibition Rate (%)” value in the assay on TNF-α [1] (test conc. 1 μM) was determined as 79%; in the assay on TNF-α [1] (test conc. 10 μM), 85%; with TNF-α [1] (test conc. 100 μM), 98%; with TNF-α [1] (test conc. 1 mM), 100%. Moreover, in the assay on TNF-α [1], the “inhibitory activity … in words” value was “superiorities over to the control compounds”. In addition, the “TNF-α Inhibition Rate (Conc.)” value with TNF-α [2] is 68% (40 mg/kg).
Turning to `CC(=O)Oc1nc(C)cc2c1C(=O)OCC2` [Ex. 21, 6-methyl-1-oxo-3,4-dihydro-1H-pyrano[3,4-c]pyridine-8-yl acetic ester], the “TNF-α Inhibition Rate (%)” value in the assay on TNF-α [1] (test conc. 1 μM) is listed as 9%; in the assay on TNF-α [1] (test conc. 10 μM), 15%; in the assay on TNF-α [1] (test conc. 100 μM), 34%; in the assay with TNF-α [1] (test conc. 1 mM), 77%. Further, the “TNF-α Inhibition Rate (Conc.)” value in the assay with TNF-α [2] was 93% (40 mg/kg). The “inhibitory activity … compared to Indomethacin” value with TNF-α [2] is on record as 1.5 or 2 times greater.
Take `Cc1cc2c(c(N3CCCCC3)n1)C(=O)OCC2` [Ex. 32, 6-methyl-8-piperidine-1-yl-3,4-dihydro-pyrano[3,4-c]pyridine-1-on]: in the assay with TNF-α [1] (test conc. 1 μM), the inhibition at 1 µM stood at 69%. In the assay on TNF-α [1] (test conc. 10 μM), the inhibition at 10 µM was found to be 78%. Also, in the assay on TNF-α [1] (test conc. 100 μM), the inhibition at 100 µM came to 89%. Also, in the assay with TNF-α [1] (test conc. 1 mM), the inhibition at 1000 µM turned out to be 100%. Moreover, in the assay on TNF-α [2], the inhibition in vivo at 40 mg/kg was 74% and the “inhibitory activity … compared to Indomethacin” value is recorded as 1.5 or 2 times greater.
With `COc1ccc(CN2CCc3ccncc3C2=O)cc1` [Ex. 115, 2-(4methoxy-benzyl)-3,4-dihydro-2H-[2,7]naphtyridine-1-on], the “TNF-α Inhibition Rate (%)” value in the assay on TNF-α [1] (test conc. 1 μM) is listed as 50%; in the assay on TNF-α [1] (test conc. 10 μM) it was 59%; with TNF-α [1] (test conc. 100 μM), 65%; with TNF-α [1] (test conc. 1 mM), 78%. Further, the “TNF-α Inhibition Rate (Conc.)” value in the assay on TNF-α [2] is recorded as 43% (40 mg/kg).
Turning to `Cc1nc(Cl)cc2c1C(=O)OCC2` [Ex. 96, 6-chloro-8-methyl-3,4-dihydro-pyrano[3,4-c]pyridine-1-on], the inhibition at 1 µM in the assay on TNF-α [1] (test conc. 1 μM) turned out to be 38%. In addition, in the assay with TNF-α [1] (test conc. 10 μM), the inhibition at 10 µM turned out to be 46%. The inhibition at 100 µM in the assay on TNF-α [1] (test conc. 100 μM) was 56%. Besides, the inhibition at 1000 µM in the assay on TNF-α [1] (test conc. 1 mM) is 63%.
For `Cc1cc2c(c(Cl)n1)C(=O)OCC2` [Ex. 20, 8-chloro-6-methyl-3,4-dihydro-pyrano[3,4-c]pyridine-1-on] the same measures were 15%, 21%, 31% and 41%.
In the same order, the values of `Cc1cc2c(c(-c3ccco3)n1)C(=O)OCC2` [Ex. 27, 6-methyl-8-furan-2-yl-3,4-dihydro-pyrano[3,4-c]pyridine-1-on] are 30%, 43%, 68% and 81%.
On to `O=C1CCC(N2C(=O)c3ccccc3C2=O)C(=O)N1` (stereo not drawn) [Thalidomide, reference compound], for which, in the assay with TNF-α [1] (test conc. 1 μM), the inhibition at 1 µM is 8%. The inhibition at 10 µM with TNF-α [1] (test conc. 10 μM) is 12%. Further, the inhibition at 100 µM in the assay on TNF-α [1] (test conc. 100 μM) came out at 20%. Besides, the inhibition at 1000 µM in the assay with TNF-α [1] (test conc. 1 mM) was 21%.

The term inhibition denotes the percentage by which the read-out fell short of the control.
